Experimental data reported in patent US20080280817A1, “MODIFIED AMINO ACID FOR THE INHIBITION OF PLATELET AGGREGATION” (NOVARTIS AG, priority 2002, published 2008).

What was measured:
Format in all cases: cell-based, human
[1] = tested on: platelet rich plasma (PRP); assay: ADP-induced platelet aggregation in PRP (aggregometer, optical density)
Protocol: (§1) Freshly drawn venous blood from healthy volunteers is collected into 0.1 vol. […] trisodium citrate. The donors have not taken any medication during two weeks prior to blood collection. PRP is prepared by centrifugation of the freshly drawn blood (150 g, 15 minutes at 22° C.) and the final platelet concentration is standardized at 200 000 cell/μL by dilution in autologous platelet-free plasma, prepared by centrifugation (1200 g, 10 minutes at 22° C.). The supernatant is collected. Samples of PRP are pre-incubated for 1 minute (22° C.) with varying concentrations of 5-CNAC in saline (stored at −20° C.).
(§2) In order to assess the inhibitory effect of 5-CNAC on platelet aggregation, the following studies are performed. Samples of 0.400 mL PRP containing 5-CNAC are prepared as above. To these samples is added 0.005 mL of an aggregation stimulator which is either ADP (Roche Molecular Biochemicals, Mannheim) or collagen (Horm Chemie, Munich). The final concentrations of either the ADP or collagen are as indicated in the “Results” section. Aggregation studies are performed in a Chronolog 4 channel aggregometer (type CH570VS-CH810). The aggregometer automatically calibrates the donor-dependent difference in optical density between platelet-free plasma (0% optical density) and the PRP (100% optical density) of a particular donor. The extent of aggregation is measured by expressing the maximal difference in optical density (independent of the time after the addition of the aggregation stimulator, i.e., either ADP or collagen) and normalized taking the control curves (without 5-CNAC) as an internal standard set at 100%.

[2] = tested on: platelet rich plasma (PRP); assay: Collagen-stimulated platelet aggregation in PRP (aggregometer, optical density)
Protocol: as §1, §2

[3] = tested on: platelet rich plasma (PRP); assay: Addition of 5-CNAC alone to PRP; platelet morphology
Protocol: as §1
In order to assess the inhibitory effect of 5-CNAC on platelet aggregation, the following studies are performed. Samples of 0.400 mL PRP containing 5-CNAC are prepared as above. To these samples is added 0.005 mL of an aggregation stimulator which is either ADP (Roche Molecular Biochemicals, Mannheim) or collagen (Horm Chemie, Munich). The final concentrations of either the ADP or collagen are as indicated in the “Results” section. […] The extent of aggregation is measured by expressing the maximal difference in optical density (independent of the time after the addition of the aggregation stimulator, i.e., either ADP or collagen) and normalized taking the control curves (without 5-CNAC) as an internal standard set at 100%.

## O=C(O)CCCCCCCNC(=O)c1cc(Cl)ccc1O [5-CNAC, N-(5-chlorosalicyloyl)-8-aminocaprylic acid]
[1]; 3 μM and 2 μM ADP compared with 5 μM ADP
  inhibition of platelet aggregation at suboptimal ADP stimulation: platelet aggregation is inhibited by lower concentrations of 5-CNAC
[1]; 5 μM ADP (maximal stimulation), PRP from 12 healthy subjects
  concentration at which inhibition of platelet aggregation becomes apparent: ≥ 2 µM
[1]; all concentrations of ADP tested
  phase of the aggregation curve in which inhibition is seen: evident in the second phase of the aggregation curve, but is not observed in the initial phase
[1]; in the presence of 5-CNAC
  change in cell shape upon ADP addition (increase in optical density): undisturbed
[1]; later part of the aggregation curve
  inhibition of secondary aggregation: dose-dependently inhibits the later part of the aggregation curve
[2]; 1 μg/mL collagen
  concentration at which inhibition is evident: ≥ 50 µM
[2]; 2 μg/mL collagen, one individual
  concentration showing platelet aggregation inhibition: about 1 mM
[2]; 2.5 μg/mL collagen, PRP of one individual, not at lower concentrations
  concentration giving some inhibition of platelet aggregation: 200 µM
[2]; 5 μg/mL collagen
  concentration at which inhibition of platelet aggregation becomes detectable: about 1 mM
[2]; 5 μg/mL collagen, 100 μM 5-CNAC
  effect on platelets (aggregation): unaffected
[2]; collagen-stimulated aggregation
  phase of the aggregation curve in which inhibition is seen: becomes apparent in the second phase of the aggregation curve
[3]; 5-CNAC alone added to PRP, no stimulator
  triggering of platelet aggregation by the compound alone: does not trigger platelet aggregation
[3]; PRP
  effect on platelet morphology (swirling of the cells): does not alter platelet morphology
